Measurements: patent publication US9695155B2, “Herbicidal substituted pyrimidinyloxy benzene compounds” (E. I. DU PONT DE NEMOURS AND COMPANY, priority 2013, dated 2017)

Experiments:
oilseed rape = assay: Test C postemergence; format: in vivo, Brassica napus; conditions: for Plant response rating (0 to 100), Oilseed Rape: 125 g ai/ha, postemergence; for Plant response rating, Oilseed Rape: Postemergence, scale 0 to 100 (0 no effect, 100 complete control)
In short: (§1)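 Sown in loam/sand → sprayed pre-emergence; or grown to 1–4 leaves in peat mix → sprayed post-emergence. Same solvent/surfactant formulation both ways. Greenhouse 13–15 d. Score 0–100 visual.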

ragweed = assay: Test C postemergence; format: in vivo, Ambrosia elatior; conditions: for Plant response rating (0 to 100), Ragweed: 125 g ai/ha, postemergence; for Plant response rating, Ragweed: Postemergence, scale 0 to 100 (0 no effect, 100 complete control)
In short: as §1

morningglory [1] = assay: Test C postemergence; format: in vivo, Ipomoea coccinea; conditions: for Plant response rating (0 to 100), Morningglory: 125 g ai/ha, postemergence; for Plant response rating, Morningglory: Postemergence, scale 0 to 100 (0 no effect, 100 complete control)
In short: as §1

large (Lg) crabgrass = assay: Test A postemergence; format: in vivo, Digitaria sanguinalis; conditions: 0 to 100 scale where 0 is no effect and 100 is complete control
In short: (§2)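 Scoring: eye-based comparison with untreated controls, 0 for no effect through 100 for complete control, at about day 10. Treatments: directed soil spray preemergence; foliar spray postemergence on 2–10 cm plants at the one- to two-leaf stage. Medium: loam soil with sand.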

yellow nutsedge = assay: Test C preemergence; format: in vivo, Cyperus esculentus; conditions: for Nutsedge, Yellow plant response rating: preemergence; for Plant response rating, Nutsedge, Yellow: Preemergence, 31 g ai/ha, scale 0 to 100, 0 no effect, 100 complete control
In short: as §1

galium = assay: Test C preemergence; format: in vivo, Galium aparine; conditions: for Galium plant response rating: preemergence; for Plant response rating, Galium: Preemergence, 31 g ai/ha, scale 0 to 100, 0 no effect, 100 complete control
In short: as §1

velvetleaf = assay: Test A postemergence; format: in vivo, Abutilon theophrasti; conditions: 0 to 100 scale where 0 is no effect and 100 is complete control
In short: as §2

wheat, winter = assay: Test C postemergence; format: in vivo, Triticum aestivum; conditions: for Plant response rating (0 to 100), Wheat: 125 g ai/ha, postemergence; for Plant response rating, Wheat: Postemergence, scale 0 to 100 (0 no effect, 100 complete control)
In short: as §1

soybean = assay: Test C postemergence; format: in vivo, Glycine max; conditions: for Plant response rating (0 to 100), Soybean: 125 g ai/ha, postemergence; for Plant response rating, Soybean: Postemergence, scale 0 to 100 (0 no effect, 100 complete control)
In short: as §1

morningglory [2] = assay: Test C preemergence; format: in vivo, Ipomoea coccinea; conditions: for Morningglory plant response rating: preemergence; for Plant response rating, Morningglory: Preemergence, 31 g ai/ha, scale 0 to 100, 0 no effect, 100 complete control
In short: as §1

corn = assay: Test C preemergence; format: in vivo, Zea mays; conditions: for Corn plant response rating: preemergence; for Plant response rating, Corn: Preemergence, 31 g ai/ha, scale 0 to 100, 0 no effect, 100 complete control
In short: as §1

lambsquarters = assay: Test C postemergence; format: in vivo, Chenopodium album; conditions: for Plant response rating (0 to 100), Lambsquarters: 125 g ai/ha, postemergence; for Plant response rating, Lambsquarters: Postemergence, scale 0 to 100 (0 no effect, 100 complete control)
In short: as §1

barnyardgrass = assay: Test B flooded paddy test; format: in vivo, Echinochloa crus-galli; conditions: Flood, 250 g ai/ha; 0 to 100 scale where 0 is no effect and 100 is complete control
In short: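 Greenhouse flooded-pot test: compounds dosed into 3 cm standing water over 2-leaf plants, flood held constant. Rated visually after 13–15 days on 0–100 (complete control = 100); a dash marks no test result.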

[3] = 16 g ai/ha, scale 0 to 100 (0 no effect, 100 complete control)
[4] = 62 g ai/ha, scale 0 (no effect) to 100 (complete control)
[5] = 125 g ai/ha, scale 0 (no effect) to 100 (complete control)

SMILES	Plant response rating (0 to 100), Oilseed Rape (oilseed rape)	Plant response rating, Oilseed Rape (oilseed rape; 31 g ai/ha, 13 to 15 days)	Plant response rating, Oilseed Rape (oilseed rape; 62 g ai/ha)	Plant response rating (0 to 100), Ragweed (ragweed)	Plant response rating, Ragweed (ragweed; 31 g ai/ha, 13 to 15 days)	Plant response rating, Ragweed (ragweed; 62 g ai/ha)	Plant response rating (0 to 100), Morningglory (morningglory [1])	Plant response rating, Morningglory (morningglory [1]; 31 g ai/ha, 13 to 15 days)	Plant response rating, Morningglory (morningglory [1]; 62 g ai/ha)	Plant response rating, Crabgrass, Large (large (Lg) crabgrass; 125 g ai/ha)	Plant response rating, Crabgrass, Large (large (Lg) crabgrass; 500 g ai/ha)	Nutsedge, Yellow plant response rating (yellow nutsedge; [3])	Nutsedge, Yellow plant response rating (yellow nutsedge; [4])	Nutsedge, Yellow plant response rating (yellow nutsedge; [5])	Plant response rating, Nutsedge, Yellow (yellow nutsedge)	Galium plant response rating (galium; [3])	Galium plant response rating (galium; [4])	Galium plant response rating (galium; [5])	Plant response rating, Galium (galium)	Plant response rating, Velvetleaf (velvetleaf; 125 g ai/ha)	also measured
Fc1cnc(Oc2cccc(C(F)F)c2-n2cc(Cl)cn2)nc1 [Compound 94]	80	50	50	45	15	55	55	75	75	50	90	0	55	65	0	80	98	100	98	90	Plant response rating, Velvetleaf (velvetleaf; 500 g ai/ha): 100; Plant response rating (0 to 100), Wheat (wheat, winter): 0; Plant response rating, Wheat (wheat, winter; 31 g ai/ha, 13 to 15 days): 0; Plant response rating, Wheat (wheat, winter; 62 g ai/ha): 0; Plant response rating (0 to 100), Soybean (soybean): 80; Plant response rating, Soybean (soybean; 31 g ai/ha, 13 to 15 days): 45; Plant response rating, Soybean (soybean; 62 g ai/ha): 85; Morningglory plant response rating (morningglory [2]; [3]): 0; Morningglory plant response rating (morningglory [2]; [4]): 40; Morningglory plant response rating (morningglory [2]; [5]): 90; Plant response rating, Morningglory (morningglory [2]): 30; Corn plant response rating (corn; [3]): 5; Corn plant response rating (corn; [4]): 5; Corn plant response rating (corn; [5]): 55; Plant response rating, Corn (corn): 5; Plant response rating (0 to 100), Lambsquarters (lambsquarters): 85; Plant response rating, Lambsquarters (lambsquarters; 31 g ai/ha, 13 to 15 days): 65; Plant response rating, Lambsquarters (lambsquarters; 62 g ai/ha): 75; Plant response rating, Barnyardgrass (barnyardgrass): 0
N#Cc1cccc(Oc2ncc(Cl)cn2)c1-n1cc(OC(F)F)cn1 [Compound 97]	80	60	80	70	40	60	95	85	85	90	100	10	60	90	20	85	98	95	90	100	Plant response rating, Velvetleaf (velvetleaf; 500 g ai/ha): 100; Plant response rating (0 to 100), Wheat (wheat, winter): 10; Plant response rating, Wheat (wheat, winter; 31 g ai/ha, 13 to 15 days): 5; Plant response rating, Wheat (wheat, winter; 62 g ai/ha): 5; Plant response rating (0 to 100), Soybean (soybean): 95; Plant response rating, Soybean (soybean; 31 g ai/ha, 13 to 15 days): 60; Plant response rating, Soybean (soybean; 62 g ai/ha): 90; Morningglory plant response rating (morningglory [2]; [3]): 40; Morningglory plant response rating (morningglory [2]; [4]): 100; Morningglory plant response rating (morningglory [2]; [5]): 100; Plant response rating, Morningglory (morningglory [2]): 98; Corn plant response rating (corn; [3]): 0; Corn plant response rating (corn; [4]): 45; Corn plant response rating (corn; [5]): 80; Plant response rating, Corn (corn): 5; Plant response rating (0 to 100), Lambsquarters (lambsquarters): 98; Plant response rating, Lambsquarters (lambsquarters; 31 g ai/ha, 13 to 15 days): 75; Plant response rating, Lambsquarters (lambsquarters; 62 g ai/ha): 80; Plant response rating, Barnyardgrass (barnyardgrass): 40
